O=C1NC(=O)C(c2ccccc2)(c2ccccc2)N1
solubility (mole fraction)
Details | 293.2 K | 298.2 K | 303.2 K | 308.2 K | 313.2 K
in n-propanol | 0.00263 | 0.00304 | 0.00329 | 0.00358 | 0.00396
in water | 1.29e-06 | 2.11e-06 | 2.42e-06 | 2.64e-06 | 2.94e-06

— BigSolDB 2.1
